{
  "source": "patent US11891642B2",
  "about": "“Biocatalytic techniques” (HYPHA DISCOVERY LIMITED, priority 2018, dated 2024)",
  "key": {"[1]": {"tested_on": "native codon optimised P450SriC12", "experiment": "Cell-free hydroxylase/dealkylase assay, lyophilised extract incubated with bosentan, UPLC-MS", "assay_type": "biochemical, Streptomyces rimosus NRRL-2234", "conditions": "0.1 mg/ml bosentan, 27° C., 16-20 hours", "procedure": "(§1) Lyophilised material of recombinant P450, ferredoxin and ferredoxin reductase proteins was made as described in Example 3 and reconstituted in high purity water to 90% the original volume. Biocatalysis was performed at 27° C. in the following conditions: 50 mM potassium phosphate pH 7.4, 5 mM MgCl2, 0.1 mg/ml substrate compound such as bosentan, cyclosporine A, diclofenac, ritonavir, tivantinib, valsartan or vanoxerine, native concentration of P450, ferredoxin and ferredoxin reductase as extracted (Example 3). Reactions were initiated by addition of 10× stock of cofactor mixture (50 mM G6P, 10 mM NADP, 10 UN/ml G6PDH) to provide a final volume of e.g., 100 μL. After 16-20 hours, reactions were extracted with an equal volume of acetonitrile, centrifuged to remove precipitated proteins and conversion assessed by UPLC-MS analysis.\n(§2) Acidic Analysis Conditions • Column: Acquity UPLC BEH Shield RP18 1.7 μm 2.1 mm i.d. 50 mm length • Column temperature: 45° C. • Solvents: H2O, B: Acetonitrile, both with 0.1% Formic acid • Flow rate: 1.0 ml/min • Gradient (A9%/B %): t=0 mins: 98/2 to 2/98 at t=2.4 mins and held for a further 0.4 mins (2.8 mins total), return to 98/2 over 0.05 mins and re-equilibrated for 0.15 mins (t=3 mins) at a flow-rate of 1.0 mL/min.\n(§3) Basic Analysis Conditions • Column: Waters Acquity UPLC BEH C18 1.7 μm 2.1 mm i.d. 50 mm length • Column temperature: 45° C. • Solvents: A: 10 mM ammonium bicarbonate in H2O, B: Acetonitrile • Gradient (A %/B %): t=0 mins: 98/2 to 2/98 at t=2.4 mins and held for a further 0.4 mins (2.8 mins total), return to 98/2 over 0.05 mins and re-equilibrated for 0.15 mins (t=3 mins) at a flow-rate of 1.0 mL/min. • Detector: Waters Acquity UPLC PDA (UV-Vis detection) and Waters Acquity UPLC QDA (MS)\n(§4) The resulting plasmids containing the new mutants genes were transformed into recombinant E. coli strains for expression as described in Example 1, cultured and induced as described in Example 2, extracted and processed as described in Example 3 and tested for biocatalytic activity as described in Example 5 above."}, "[2]": {"tested_on": "R63W mutant of codon optimised P450SriC12", "experiment": "Cell-free hydroxylase/dealkylase assay, lyophilised extract incubated with bosentan, UPLC-MS", "assay_type": "biochemical, Streptomyces rimosus NRRL-2234", "conditions": "0.1 mg/ml bosentan, 27° C., 16-20 hours", "procedure": "as §1, §2, §3, §4"}},
  "data": [
    {"smiles": "COc1ccccc1Oc1c(NS(=O)(=O)c2ccc(C(C)(C)C)cc2)nc(-c2ncccn2)nc1OCCO", "note": "[bosentan]", "values": [
      {"measurement": "yield of the O-demethyl-bosentan product", "setting": "[1]", "result": 3.3, "unit": "%"},
      {"measurement": "hydroxy-bosentan product", "setting": "[2]", "result": "no hydroxy-bosentan product was detected"},
      {"measurement": "yield of the O-demethyl-bosentan product", "setting": "[2]", "result": 63.2, "unit": "%"}
    ]}
  ]
}
